Laboratory results from the supplement of paper PMC4858399.

Columns and labels:
Details in all cases: exposure time 48 h
[1] = test system: Caenorhabditis elegans N2; assay: lowest effective concentration for larval growth inhibition (size below effect threshold); higher = less potent
Summary of the method: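 In 96-well plates, 50 C. elegans N2 L1 larvae per well were cultured at 20°C for 48 h in K-medium with killed bacteria and 1% DMSO, plus the chemical at 0.5, 1, 5, 10, 50, 100 or 200 µM. Size was measured as per-worm extinction on a Biosort and log-transformed into well means. Taking the first dose where the plate-adjusted mean size sits under 5.665 and stays there at higher doses gives the lowest effective concentration.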

[2] = test system: Caenorhabditis elegans N2; assay: AC50 for larval growth inhibition (Hill fit); higher = less potent
Summary of the method: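 C. elegans N2 L1 larvae, synchronised and plated at 50 per well in 96-well plates, were exposed for 48 h at 20°C to 0.5–200 µM chemical in K-medium with killed OP50 and 1% DMSO. Log-transformed extinction from a COPAS Biosort served as worm size, averaged per well. Wells containing at least 10 worms entered the fit. A constrained Hill fit by weighted genetic-algorithm regression yielded the AC50, censored when out of range.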

[3] = test system: Caenorhabditis elegans N2; assay: mean nematode size ln(EXT) after 48 h, plate-adjusted (DMSO control set to 6) (ln(EXT), control-adjusted); higher = larger nematodes / less growth inhibition
Summary of the method: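 A growth model removed debris from Biosort extinction readings taken on each worm. These worms were synchronised C. elegans N2 L1 larvae, 50 per well in 4–6 wells per treatment, grown for 48 h at 20°C in K-medium with killed OP50, 1% DMSO and 0.5–200 µM chemical. Readings were natural-logged and averaged by well to give mean size. On each plate, the vehicle control mean was subtracted and 6 was added.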

SMILES | lowest effective concentration [1] | AC50 for larval growth inhibition [2] | mean nematode size ln(EXT) (ln) ([3]; 0.5 µM) | mean nematode size ln(EXT) (ln) ([3]; 1 µM) | mean nematode size ln(EXT) (ln) ([3]; 5 µM) | mean nematode size ln(EXT) (ln) ([3]; 10 µM) | mean nematode size ln(EXT) (ln) ([3]; 50 µM) | mean nematode size ln(EXT) (ln) ([3]; 100 µM) | mean nematode size ln(EXT) (ln) ([3]; 200 µM)
CC(C)(O)c1coc(S(=O)(=O)NC(=O)Nc2c3c(cc4c2CCC4)CCC3)c1 | 200 µM | 111 µM | 5.93 | 6.15 | 6.24 | 6.2 | 6.09 | 5.98 | 5.63
CC(C)CCCCCCOC(=O)C1CCCCC1C(=O)OCCCCCCC(C)C (configuration not stated) | 200 µM | > 200 µM | 5.92 | 5.97 | 5.87 | 5.9 | 5.87 | 5.84 | 5.66
CC(C)c1nnc2ccc(-c3ocnc3-c3cc(F)ccc3F)cn12 | 200 µM | > 200 µM | 5.79 | 5.88 | 5.84 | 5.82 | 5.82 | 5.79 | 5.53
CC(Cc1ccc(OCC(=O)O)cc1)NCC(O)c1csc(C(F)(F)F)n1 (configuration not stated) | 200 µM | > 200 µM | 5.86 | 5.88 | 5.84 | 6.03 | 5.84 | 5.89 | 5.4
CCCOc1sc(C(=O)N2CCC(c3cc(CN)ccc3F)CC2)c(C)c1Br | 5 µM | 9.86 µM | 5.68 | 5.67 | 5.54 | 4.86 | 3.73 | 3.92 | 
CCOC(=O)COc1ccc2c(c1)CC(NCC(O)c1cccc(Cl)c1)CC2 (configuration not stated) | 200 µM | > 200 µM | 5.79 | 5.81 | 5.87 | 5.81 | 5.76 | 5.75 | 5.5
CCOc1ccc2[nH]cc(C(=O)NCc3ccccc3)c(=O)c2n1 | 200 µM | > 200 µM | 5.85 | 5.84 | 5.84 | 5.96 | 5.91 | 5.86 | 5.63
CCOc1cccc(C2(N3CCN(c4ccccc4)CC3)CCC(C)CC2)c1 (configuration not stated) | 200 µM | > 200 µM | 5.73 | 5.87 | 5.72 | 5.79 | 5.69 | 5.67 | 5.56
CC[C@@H]1C[C@H](N(Cc2cc(C(F)(F)F)cc(C(F)(F)F)c2)C(C)=O)c2cc(C(F)(F)F)ccc2N1C(=O)OC(C)C | 200 µM | > 200 µM | 5.74 | 6.01 | 5.87 | 5.9 | 5.83 | 5.79 | 5.52
CC[C@H](C)[C@@H](C(=O)O)n1sc2ccccc2c1=O | 200 µM | 105 µM | 5.91 | 6.12 | 6.17 | 6.14 | 6.07 | 5.94 | 5.59
CC[C@H]1CC[C@H](NCc2cc3c(cc2OC)[C@H]2C[C@H]2C(=O)N3C)[C@H](c2ccccc2)N1 | 200 µM | > 200 µM | 5.85 | 5.81 | 5.87 | 5.86 | 5.77 | 5.85 | 5.48
CCc1cc(SCc2sc(-c3ccc(C(F)(F)F)cc3)nc2CN2CCN(c3ccc(OC)cc3)CC2)ccc1OCC(=O)O | 5 µM | 9.23 µM | 6 | 5.67 | 5.57 | 4.69 | 4.47 | 4.29 | 3.99
CCc1nn(C2CCCCC2)c2cc(C3(C#N)CCC(C(=O)O)CC3)ccc12 (configuration not stated) | 200 µM | > 200 µM | 5.91 | 5.88 | 5.86 | 5.93 | 5.81 | 5.67 | 5.45
CN1CCN(Cc2cc(-c3ccc4[nH]c(=O)oc4c3)co2)[C@@H](c2ccc(F)cc2)C1 | 10 µM | 114 µM | 5.7 | 5.65 | 5.75 | 5.61 | 5.3 | 4.92 | 3.58
CNCc1ccc(NC(=O)c2c[nH]c3c2C(=O)CCC3)cc1 | 200 µM | > 200 µM | 5.9 | 6.14 | 6.21 | 6.19 | 6.15 | 6.09 | 5.65
COc1cc(C(C)C)c2c(c1)S(=O)(=O)N(COc1cc(=O)n3cccc(OCCN4CCCCC4)c3n1)C2=O | 200 µM | > 200 µM | 5.91 | 5.92 | 5.88 | 5.88 | 5.87 | 5.72 | 5.47
COc1cccc(-c2ccc(/C=C\CN3CCCCCC3)cc2Cl)c1 | 5 µM | 90.6 µM | 5.88 | 5.69 | 5.61 | 5.5 | 4.98 | 4.39 | 
CSc1ccc(Oc2ccc(S(N)(=O)=O)cc2CN(C)C)cc1C | 200 µM | > 200 µM | 5.74 | 5.87 | 5.86 | 5.84 | 5.83 | 5.69 | 5.17
Cc1cc(CCN2CCN(c3nsc4ccccc34)CC2)cc2c1NC(=O)CC2(C)C | 5 µM | 41.3 µM | 5.77 | 5.72 | 5.61 | 5.4 | 4.49 | 4.01 | 3.55
Cc1cc(NC(=O)C(=O)O)cc(C)c1Oc1ccc(O)c2c1CCC2 | 200 µM | > 200 µM | 5.86 | 5.81 | 5.88 | 5.83 | 5.84 | 5.76 | 5.58
Cc1cc(SC2=C(O)C[C@@](CCc3ccc(N)cc3)(C(C)C)OC2=O)c(C(C)(C)C)cc1CO | 200 µM | 186 µM | 5.92 | 6.15 | 6.21 | 6.22 | 6.19 | 6.07 | 5.64
Cc1cc2c(cc1C(F)(F)F)N(C(=O)Nc1ccc(Oc3cccnc3C)nc1)CC2 | 200 µM | > 200 µM | 5.88 | 5.73 | 5.86 | 5.71 | 5.75 | 5.67 | 5.57
Cc1cc2c3c(c1)C(c1ccccc1)=N[C@@H](NC(=O)c1ccncc1)C(=O)N3CC2 | 200 µM | > 200 µM | 5.86 | 5.88 | 5.88 | 5.88 | 5.9 | 5.83 | 5.23

SMILES | lowest effective concentration [1] | AC50 for larval growth inhibition [2] | mean nematode size ln(EXT) (ln) ([3]; 0.5 µM) | mean nematode size ln(EXT) (ln) ([3]; 1 µM) | mean nematode size ln(EXT) (ln) ([3]; 5 µM) | mean nematode size ln(EXT) (ln) ([3]; 10 µM) | mean nematode size ln(EXT) (ln) ([3]; 50 µM) | mean nematode size ln(EXT) (ln) ([3]; 100 µM) | mean nematode size ln(EXT) (ln) ([3]; 200 µM)
Cc1nccn1-c1ccc(Sc2cccc(C3(C(N)=O)CCOCC3)c2)cc1 | 200 µM | > 200 µM | 5.74 | 6.03 | 5.84 | 5.88 | 5.86 | 5.81 | 5.48
Cc1oc(-c2ccccc2)nc1CCOc1cccc2c1ccn2CCC(=O)O | 200 µM | > 200 µM | 5.73 | 5.92 | 5.85 | 5.73 | 5.67 | 5.81 | 5.52
N#Cc1ccc(N(CC(N)=O)CC(F)(F)F)cc1C(F)(F)F | 200 µM | > 200 µM | 5.89 | 5.86 | 5.91 | 6 | 5.95 | 5.91 | 5.47
NC(=O)N(O)[C@@H]1COc2cc(OCc3ccccc3)ccc21 | 200 µM | > 200 µM | 5.86 | 5.87 | 5.82 | 5.77 | 5.84 | 5.81 | 5.59
NCc1cccc(C2CCN(C(=O)c3ccc(C#Cc4ccccc4F)o3)CC2)c1 | 5 µM | 31.6 µM | 5.96 | 5.71 | 5.61 | 5.42 | 4.45 | 3.28 | 
O=C(NC(=O)c1cc(F)c(F)cc1Cl)Nc1cc(F)ccc1N1CCC(C(=O)O)CC1 | 200 µM | 91.3 µM | 5.94 | 5.9 | 5.94 | 5.9 | 5.93 | 5.73 | 5.57
O=C(N[C@H]1CN2CCC1CC2)c1cc2ccoc2cn1 | 200 µM | > 200 µM | 5.73 | 5.89 | 5.88 | 5.78 | 5.86 | 5.86 | 5.65
O=C(Nc1ccc2[nH]ccc2c1)c1cc2cc(F)ccc2n1Cc1cccc(F)c1 | 1 µM | 6.54 µM | 5.77 | 5.57 | 5.5 | 3.83 | 3.84 | 3.62 | 3.51
O=C(O)c1cccc(C[C@@H]2COc3ccc(OCc4nc5cc(F)ccc5s4)cc3[C@@H]2O)c1 | 200 µM | > 200 µM | 5.95 | 5.88 | 5.79 | 5.88 | 5.87 | 5.92 | 5.09
O=C(O)c1ccccc1-n1cc(C(=O)O)c(=O)c2cc(Nc3c(F)cc(F)cc3Cl)c(Cl)cc21 | 200 µM | > 200 µM | 5.87 | 5.89 | 5.95 | 5.9 | 5.94 | 5.85 | 5.63
OC12N=C(c3ccccc3)SC1Cc1cc(Cl)ccc12 (configuration not stated) | 5 µM | 48.6 µM | 5.69 | 5.74 | 5.5 | 5.45 | 4.53 | 4.08 | 3.96
CC1(C)CC(N=C=O)CC(C)(CN=C=O)C1 (mixture of isomers) [Isophorone diisocyanate, mixture of isomers] | 100 µM | > 200 µM | 5.94 | 5.89 | 5.97 | 5.71 | 5.76 | 5.37 | 4.55
CCCCC(CC)CN1C(=O)C2C3C=CC(C3)C2C1=O (mixture of isomers) [MGK] | 200 µM | 185 µM | 5.99 | 5.99 | 5.97 | 5.98 | 5.81 | 5.84 | 4.3
Cc1c(COC(=O)[C@@H]2[C@H](/C=C(\Cl)C(F)(F)F)C2(C)C)cccc1-c1ccccc1 (racemic) [Bifenthrin] | 200 µM | > 200 µM | 5.92 | 5.85 | 5.84 | 5.96 | 5.9 | 5.78 | 5.37
CC(C)(C)[C@H](O)[C@H](Cc1ccc(Cl)cc1)n1cncn1 (racemic) [Paclobutrazol] | 50 µM | > 200 µM | 5.57 | 5.77 | 5.8 | 5.97 | 5.33 | 5.58 | 4.63
Cc1c(F)c(F)c(COC(=O)[C@@H]2[C@H](/C=C(\Cl)C(F)(F)F)C2(C)C)c(F)c1F (racemic) [Tefluthrin] | 50 µM | > 200 µM | 5.7 | 5.77 | 5.71 | 5.79 | 5.39 | 5.29 | 5.13
ClC1=C(Cl)[C@]2(Cl)[C@@H]3[C@@H](Cl)[C@H]4O[C@H]4[C@@H]3[C@@]1(Cl)C2(Cl)Cl (single isomer, unassigned; isomer b) [Heptachlor epoxide, isomer B] | 5 µM | 7.71 µM | 5.72 | 5.69 | 5.48 | 5.44 | 5.2 | 5.14 | 5.11
OCCC(F)(F)C(F)(F)C(F)(F)C(F)(F)C(F)(F)C(F)(F)C(F)(F)C(F)(F)F [1,1,2,2-Tetrahydroperfluoro-1-decanol] | 10 µM | > 200 µM | 5.86 | 5.67 | 5.72 | 5.62 | 5.54 | 5.37 | 4.6
Clc1cccc(Cl)c1Cl [1,2,3-Trichlorobenzene] | 200 µM | 122 µM | 6.08 | 6.04 | 6.06 | 6.07 | 6.02 | 5.98 | 3.55
Clc1cc(Cl)c(Cl)cc1Cl [1,2,4,5-Tetrachlorobenzene] | 50 µM | 110 µM | 5.97 | 5.98 | 6.07 | 6.11 | 5.34 | 4.83 | 3.82
Clc1ccc(Cl)c(Cl)c1 [1,2,4-Trichlorobenzene] | 200 µM | 186 µM | 5.82 | 5.79 | 5.69 | 5.76 | 5.66 | 5.84 | 4.27
O=Cc1ccccc1C=O [1,2-Benzenedicarboxaldehyde] | 50 µM | 62 µM | 5.83 | 5.92 | 5.82 | 5.93 | 5.24 | 4.04 | 3.73
